Here are results for 4 compounds from article PMC8550792, “Evolution of kinase polypharmacology across HSP90 drug discovery” (Cell Chemical Biology, 2021).

What all share (assay): biochemical
Holding throughout (assay type): biochemical

Test [1] deals with T1, 382 unique human kinases (Homo sapiens, UniProt P30530, R499C).
T1 construct: purchased Reaction Biology (HotSpot contract assay)
T1 sequence (P30530 26-894 R499C): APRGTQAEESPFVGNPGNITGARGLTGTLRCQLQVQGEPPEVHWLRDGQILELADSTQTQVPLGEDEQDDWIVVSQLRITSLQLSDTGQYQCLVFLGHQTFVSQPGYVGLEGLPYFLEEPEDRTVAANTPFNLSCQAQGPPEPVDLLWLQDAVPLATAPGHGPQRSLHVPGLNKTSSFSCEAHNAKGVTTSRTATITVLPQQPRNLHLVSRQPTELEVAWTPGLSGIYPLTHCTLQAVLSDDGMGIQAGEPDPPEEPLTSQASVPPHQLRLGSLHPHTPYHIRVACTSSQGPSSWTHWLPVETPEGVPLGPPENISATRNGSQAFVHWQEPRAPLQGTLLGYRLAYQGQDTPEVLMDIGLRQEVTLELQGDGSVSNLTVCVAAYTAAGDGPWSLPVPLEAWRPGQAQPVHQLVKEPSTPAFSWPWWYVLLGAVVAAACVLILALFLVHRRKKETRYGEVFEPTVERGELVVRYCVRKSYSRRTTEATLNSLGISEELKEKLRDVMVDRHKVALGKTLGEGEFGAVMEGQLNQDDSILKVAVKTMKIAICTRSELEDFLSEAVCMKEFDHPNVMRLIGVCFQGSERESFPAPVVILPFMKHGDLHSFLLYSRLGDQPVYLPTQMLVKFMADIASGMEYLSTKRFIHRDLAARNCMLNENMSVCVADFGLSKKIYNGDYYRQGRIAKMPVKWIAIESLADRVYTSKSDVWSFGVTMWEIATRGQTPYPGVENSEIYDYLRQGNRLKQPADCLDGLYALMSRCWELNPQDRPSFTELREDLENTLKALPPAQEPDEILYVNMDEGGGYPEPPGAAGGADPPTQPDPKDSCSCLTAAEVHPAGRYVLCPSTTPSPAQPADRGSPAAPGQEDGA
As to conditions: AXL (R499C), 10 uM; for remaining activity at 10 µM: read-out: % Enzyme Activity (relative to DMSO controls).

The target of test [2] is T2, 382 unique human kinases (Homo sapiens, UniProt P19525).
T2 construct: purchased Reaction Biology (HotSpot contract assay)
T2 sequence (P19525 whole entry): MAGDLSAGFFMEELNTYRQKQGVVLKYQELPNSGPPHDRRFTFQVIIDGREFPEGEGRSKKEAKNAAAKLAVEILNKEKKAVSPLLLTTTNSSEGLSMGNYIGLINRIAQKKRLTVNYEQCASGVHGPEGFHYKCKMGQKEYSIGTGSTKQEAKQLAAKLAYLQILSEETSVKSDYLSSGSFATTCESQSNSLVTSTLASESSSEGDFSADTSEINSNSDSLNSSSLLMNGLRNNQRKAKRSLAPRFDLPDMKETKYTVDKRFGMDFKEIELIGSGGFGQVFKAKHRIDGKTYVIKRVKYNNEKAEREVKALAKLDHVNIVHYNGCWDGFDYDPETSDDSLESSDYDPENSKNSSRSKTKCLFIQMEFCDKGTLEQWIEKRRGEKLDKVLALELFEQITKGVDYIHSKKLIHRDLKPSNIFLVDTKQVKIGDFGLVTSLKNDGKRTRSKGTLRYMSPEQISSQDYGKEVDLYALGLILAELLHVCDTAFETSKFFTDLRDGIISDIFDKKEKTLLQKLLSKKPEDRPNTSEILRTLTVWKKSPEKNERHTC
As to conditions: kinase EIF2AK2, compound 10 uM; for remaining activity at 10 µM: read-out: % Enzyme Activity (relative to DMSO controls).

Test [3] addresses T3, 382 unique human kinases (Homo sapiens, UniProt Q6DT37).
T3 construct: purchased Reaction Biology (HotSpot contract assay)
As to conditions: DMPK2, 10 uM; for remaining activity at 10 µM: read-out: % Enzyme Activity (relative to DMSO controls).

Test [4] deals with T4, 382 unique human kinases (Homo sapiens, UniProt Q7KZI7).
T4 construct: purchased Reaction Biology (HotSpot contract assay)
T4 sequence (Q7KZI7 whole entry): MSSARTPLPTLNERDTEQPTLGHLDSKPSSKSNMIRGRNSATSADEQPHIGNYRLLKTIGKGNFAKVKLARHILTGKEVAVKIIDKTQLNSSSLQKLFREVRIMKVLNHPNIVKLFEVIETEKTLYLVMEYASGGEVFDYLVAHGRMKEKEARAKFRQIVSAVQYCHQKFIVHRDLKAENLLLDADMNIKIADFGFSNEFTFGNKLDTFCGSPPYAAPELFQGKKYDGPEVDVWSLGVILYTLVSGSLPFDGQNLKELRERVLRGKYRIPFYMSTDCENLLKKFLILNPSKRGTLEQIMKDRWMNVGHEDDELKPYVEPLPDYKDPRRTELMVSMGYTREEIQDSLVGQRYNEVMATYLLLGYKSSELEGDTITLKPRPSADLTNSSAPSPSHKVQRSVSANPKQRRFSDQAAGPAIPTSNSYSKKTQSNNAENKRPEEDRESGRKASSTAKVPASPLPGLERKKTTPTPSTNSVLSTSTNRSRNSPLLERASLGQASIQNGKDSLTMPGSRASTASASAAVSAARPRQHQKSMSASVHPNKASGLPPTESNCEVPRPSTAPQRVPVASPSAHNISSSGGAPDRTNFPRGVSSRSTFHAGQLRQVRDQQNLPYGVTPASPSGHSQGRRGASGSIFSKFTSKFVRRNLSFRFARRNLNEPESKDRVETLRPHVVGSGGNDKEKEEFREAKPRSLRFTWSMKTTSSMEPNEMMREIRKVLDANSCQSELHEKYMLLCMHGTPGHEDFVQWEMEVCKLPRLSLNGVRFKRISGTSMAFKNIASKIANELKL
As to conditions: MARK2/PAR-1Ba, 10 uM; for remaining activity at 10 µM: read-out: % Enzyme Activity (relative to DMSO controls).

Test [5] deals with T5, 382 unique human kinases (Homo sapiens, UniProt Q9HBY8).
T5 construct: purchased Reaction Biology (HotSpot contract assay)
T5 sequence (Q9HBY8 1-367): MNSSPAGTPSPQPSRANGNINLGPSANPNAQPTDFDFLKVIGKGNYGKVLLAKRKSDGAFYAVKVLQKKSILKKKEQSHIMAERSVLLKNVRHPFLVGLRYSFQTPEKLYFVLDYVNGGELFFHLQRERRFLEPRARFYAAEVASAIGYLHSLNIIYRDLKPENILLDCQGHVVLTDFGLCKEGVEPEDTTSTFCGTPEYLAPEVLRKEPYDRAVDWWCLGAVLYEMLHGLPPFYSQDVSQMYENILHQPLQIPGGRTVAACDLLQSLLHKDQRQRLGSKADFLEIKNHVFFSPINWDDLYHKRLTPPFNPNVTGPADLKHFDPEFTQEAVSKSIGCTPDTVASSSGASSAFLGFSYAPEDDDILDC
As to conditions: kinase SGK2, compound 10 uM; for remaining activity at 10 µM: read-out: % Enzyme Activity (relative to DMSO controls).

Test [6] concerns the target T6, 382 unique human kinases (Homo sapiens, UniProt P54753).
T6 construct: purchased Reaction Biology (HotSpot contract assay)
T6 sequence (P54753 34-998): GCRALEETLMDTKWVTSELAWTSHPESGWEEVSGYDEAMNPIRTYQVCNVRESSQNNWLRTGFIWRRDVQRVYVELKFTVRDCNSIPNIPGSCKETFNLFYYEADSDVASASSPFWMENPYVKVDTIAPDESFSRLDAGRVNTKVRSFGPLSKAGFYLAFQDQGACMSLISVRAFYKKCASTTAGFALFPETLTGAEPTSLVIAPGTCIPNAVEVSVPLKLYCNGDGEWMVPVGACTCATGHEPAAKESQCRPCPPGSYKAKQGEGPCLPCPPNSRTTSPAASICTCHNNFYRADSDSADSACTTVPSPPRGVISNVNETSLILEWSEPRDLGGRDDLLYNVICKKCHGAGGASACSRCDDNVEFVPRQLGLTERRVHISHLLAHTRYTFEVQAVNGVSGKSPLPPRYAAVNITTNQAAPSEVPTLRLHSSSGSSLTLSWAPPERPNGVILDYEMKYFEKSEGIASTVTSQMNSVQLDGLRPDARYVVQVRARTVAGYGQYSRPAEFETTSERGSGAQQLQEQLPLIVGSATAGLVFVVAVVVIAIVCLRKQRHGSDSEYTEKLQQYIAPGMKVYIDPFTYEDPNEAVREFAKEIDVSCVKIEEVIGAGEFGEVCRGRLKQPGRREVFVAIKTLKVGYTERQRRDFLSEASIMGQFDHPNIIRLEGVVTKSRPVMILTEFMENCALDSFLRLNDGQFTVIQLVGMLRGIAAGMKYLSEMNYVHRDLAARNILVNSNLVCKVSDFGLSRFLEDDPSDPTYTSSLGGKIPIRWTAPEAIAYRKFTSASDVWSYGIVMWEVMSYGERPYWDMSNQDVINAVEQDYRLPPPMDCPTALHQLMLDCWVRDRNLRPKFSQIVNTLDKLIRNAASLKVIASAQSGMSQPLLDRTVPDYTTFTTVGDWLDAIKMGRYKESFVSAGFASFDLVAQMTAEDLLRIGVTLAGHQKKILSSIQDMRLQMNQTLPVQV
As to conditions: EPHB3, 10 uM; for remaining activity at 10 µM: read-out: % Enzyme Activity (relative to DMSO controls).

The target in test [7] is T7, 382 unique human kinases (Homo sapiens, UniProt P27361).
T7 construct: purchased Reaction Biology (HotSpot contract assay)
T7 sequence (P27361 whole entry): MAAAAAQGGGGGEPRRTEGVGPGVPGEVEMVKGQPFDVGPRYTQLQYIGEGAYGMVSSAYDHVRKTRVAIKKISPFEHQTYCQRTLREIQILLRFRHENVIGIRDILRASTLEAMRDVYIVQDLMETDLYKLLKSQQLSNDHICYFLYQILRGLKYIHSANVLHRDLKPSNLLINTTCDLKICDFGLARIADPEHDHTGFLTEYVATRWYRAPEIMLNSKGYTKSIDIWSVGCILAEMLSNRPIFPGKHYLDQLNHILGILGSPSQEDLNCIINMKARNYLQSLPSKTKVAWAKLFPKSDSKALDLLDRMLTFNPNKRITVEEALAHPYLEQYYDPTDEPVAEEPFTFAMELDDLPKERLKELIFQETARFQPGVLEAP
As to conditions: ERK1, 10 uM; for remaining activity at 10 µM: read-out: % Enzyme Activity (relative to DMSO controls).

T3 sequence (Q6DT37 whole entry): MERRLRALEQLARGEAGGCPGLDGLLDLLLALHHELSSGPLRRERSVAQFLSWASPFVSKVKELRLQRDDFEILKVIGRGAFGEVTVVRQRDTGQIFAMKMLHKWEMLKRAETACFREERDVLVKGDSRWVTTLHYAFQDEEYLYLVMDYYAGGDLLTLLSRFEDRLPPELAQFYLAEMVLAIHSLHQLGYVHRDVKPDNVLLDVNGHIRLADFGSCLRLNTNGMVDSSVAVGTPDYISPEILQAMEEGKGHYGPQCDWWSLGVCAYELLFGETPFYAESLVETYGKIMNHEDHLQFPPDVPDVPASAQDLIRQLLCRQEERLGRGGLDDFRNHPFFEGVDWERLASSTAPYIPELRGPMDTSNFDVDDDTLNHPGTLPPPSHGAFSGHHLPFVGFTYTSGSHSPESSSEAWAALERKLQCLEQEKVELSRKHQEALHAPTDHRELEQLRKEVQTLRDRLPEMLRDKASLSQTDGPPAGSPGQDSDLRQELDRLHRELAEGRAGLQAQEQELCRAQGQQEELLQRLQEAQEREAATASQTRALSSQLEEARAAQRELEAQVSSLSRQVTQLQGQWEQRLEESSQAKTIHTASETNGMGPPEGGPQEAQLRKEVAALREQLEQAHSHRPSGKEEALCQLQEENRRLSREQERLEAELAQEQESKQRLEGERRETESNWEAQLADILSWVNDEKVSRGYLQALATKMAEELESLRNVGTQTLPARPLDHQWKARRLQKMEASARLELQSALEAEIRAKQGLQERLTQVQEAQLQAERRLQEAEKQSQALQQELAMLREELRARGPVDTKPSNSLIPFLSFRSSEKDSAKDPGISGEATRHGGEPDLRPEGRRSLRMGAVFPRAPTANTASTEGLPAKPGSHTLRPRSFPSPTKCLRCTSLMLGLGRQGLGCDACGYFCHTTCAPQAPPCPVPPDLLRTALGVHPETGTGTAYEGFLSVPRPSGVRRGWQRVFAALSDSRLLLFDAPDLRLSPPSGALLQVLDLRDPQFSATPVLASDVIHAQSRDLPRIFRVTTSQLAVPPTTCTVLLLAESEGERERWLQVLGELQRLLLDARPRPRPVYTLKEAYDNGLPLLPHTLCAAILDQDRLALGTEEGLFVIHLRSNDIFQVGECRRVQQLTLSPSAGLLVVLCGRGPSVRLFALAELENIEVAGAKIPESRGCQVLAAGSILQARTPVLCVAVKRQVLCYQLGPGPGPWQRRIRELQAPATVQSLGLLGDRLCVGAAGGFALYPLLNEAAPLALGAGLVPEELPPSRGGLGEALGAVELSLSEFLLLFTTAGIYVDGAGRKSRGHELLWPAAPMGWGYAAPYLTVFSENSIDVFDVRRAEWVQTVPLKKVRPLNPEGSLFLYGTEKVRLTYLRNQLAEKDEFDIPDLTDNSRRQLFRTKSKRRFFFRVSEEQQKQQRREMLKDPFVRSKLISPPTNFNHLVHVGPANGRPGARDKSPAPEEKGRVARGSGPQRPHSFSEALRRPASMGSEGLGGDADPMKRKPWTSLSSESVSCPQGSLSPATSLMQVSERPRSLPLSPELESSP

`CC(C)c1cc(-c2n[nH]c(=O)n2-c2ccc3c(ccn3C)c2)c(O)cc1O` [Ganetespib (STA9090)]: the remaining activity at 10 µM at 382 unique human kinases [1] is 66.4%; at 382 unique human kinases [2] it was 90.5%; on 382 unique human kinases [3], 75.6%; at 382 unique human kinases [4] it was 75.7%; at 382 unique human kinases [5], 85.5%.
In the case of `CC(C)c1cc(-c2n[nH]c(=O)n2-c2ccc3c(ccn3C)c2)c(O)cc1O` [Ganetespib], the remaining activity at 10 µM on 382 unique human kinases [6] was 94.5%; on 382 unique human kinases [7], 101%.
`CCNC(=O)c1noc(-c2cc(C(C)C)c(O)cc2O)c1-c1ccc(CN2CCOCC2)cc1` [Luminespib (AUY-922)]: the “% Enzyme Activity (relative to DMSO controls)” value at 382 unique human kinases [1] stood at 96.57%; on 382 unique human kinases [2], 107.07%; at 382 unique human kinases [3], 113.14%; on 382 unique human kinases [4] it was 102.26%; on 382 unique human kinases [5] it was 108.05%. For the same compound, the remaining activity at 10 µM at 382 unique human kinases [1] is 98.8%; on 382 unique human kinases [2], 108%; on 382 unique human kinases [3] it was 114%; at 382 unique human kinases [4], 104%; on 382 unique human kinases [5], 110%.
Turning to `CCNC(=O)c1noc(-c2cc(C(C)C)c(O)cc2O)c1-c1ccc(CN2CCOCC2)cc1` [Luminespib], on 382 unique human kinases [6], the “% Enzyme Activity (relative to DMSO controls)” value was 94.58% and the remaining activity at 10 µM is 95.5%. In addition, at 382 unique human kinases [7], the “% Enzyme Activity (relative to DMSO controls)” value was 95.87% and the remaining activity at 10 µM was 96.1%.
